# Results from article PMC11191095, “QSAR Reveals Decreased Lipophilicity of Polar Residues Determines the Selectivity of Antimicrobial Peptide Activity” (ACS Omega, 2024).
# Where a SMILES comes first, the peptide text is derived from it.
# Key:
# Assay in all cases: microbe, parasite or virus in culture
# K. pneumoniae M6 = format: cell-based, Klebsiella pneumoniae; details: K. pneumoniae M6 (S)
# Protocol: (§1) Antimicrobial activity was evaluated against a panel of 18 pathogens consisting of eight Gram-negative strains (E. coli NCTC 12923, E. coli LEC001, Pseudomonas aeruginosa PAO1, P. aeruginosa NCTC 13437, Acinetobacter baumannii ATCC 17978, A. baumannii AYE, Klebsiella pneumoniae M6, K. pneumoniae NCTC 13368), four Gram-positive strains (Staphylococcus aureus ATCC 9144, S. aureus NCTC 13616, S. aureus USA300, S. aureus 1199B) and six fungi (Candida auris TDG 1912, C. albicans NCPF 8018, C. krusei NCPF 3876, C. tropicalis NCPF 8760, and C. parapsilosis NCPF 3209). Pathogens were grown in noncation adjusted Mueller Hinton broth (MHB, for bacteria) or Roswell Park Memorial Institute (RPMI 1640) + 2% glucose (for fungi) at 37 °C with 180 rpm shaking and maintained on solid media (tryptic soy agar for bacteria and Sabouraud dextrose agar for fungi). For an antibiogram, see Suppl.
# (§2) The 46 peptides were serially diluted (128 to 2 μg/mL) in media down polypropylene 96-well plates. Bacteria or fungi, diluted from an overnight culture to an OD600 of 0.01, were added to the serially diluted peptides at a 1:1 ratio resulting in a starting cell density of ∼5 × 10^5 CFU/mL. Plates were incubated at 37 °C for 20 h, and the optical density was determined spectrophotometrically at 600 nm. Minimum inhibition concentrations (MICs) were determined from a minimum of three biological repeats and are reported in μg/mL as well as μM. […] The MIC50 or MIC90 is defined as the lowest peptide concentration that results in 50% or 90% growth inhibition over a 20 h treatment period, respectively.
# K. pneumoniae NCTC 13368 = format: cell-based, Klebsiella pneumoniae; details: K. pneumoniae NCTC 13368 (R)
# Protocol: as §1, §2
# A. baumannii ATCC 17978 = format: cell-based, Acinetobacter baumannii; details: A. baumannii ATCC 17978 (S)
# Protocol: as §1, §2
# A. baumannii AYE = format: cell-based, Acinetobacter baumannii; details: A. baumannii AYE (R)
# Protocol: as §1, §2
# S. aureus (MRSA) USA300 = format: cell-based, Staphylococcus aureus; details: S. aureus (MRSA) USA300 (R)
# Protocol: as §1, §2
# [1] = tested on: S. aureus (MSSA) ATCC 9144; format: cell-based, Staphylococcus aureus; details: S. aureus (MSSA) ATCC 9144 (S)
# Protocol: as §1, §2
# S. aureus (MRSA) 1199B = format: cell-based, Staphylococcus aureus; details: S. aureus (MRSA) 1199B (R)
# Protocol: as §1, §2
# [2] = tested on: S. aureus (MRSA) NCTC 13616; format: cell-based, Staphylococcus aureus; details: S. aureus (MRSA) NCTC 13616 (R)
# Protocol: as §1, §2
# P. aeruginosa NCTC 13437 = format: cell-based, Pseudomonas aeruginosa; details: P. aeruginosa NCTC 13437 (R)
# Protocol: as §1, §2
# P. aeruginosa PAO1 = format: cell-based, Pseudomonas aeruginosa; details: P. aeruginosa PAO1 (S)
# Protocol: as §1, §2
# E. coli LEC001 = format: cell-based, Escherichia coli; details: E. coli LEC001 (R)
# Protocol: as §1, §2
# E. coli NCTC 12923 = format: cell-based, Escherichia coli; details: E. coli NCTC 12923 (S)
# Protocol: as §1, §2
# C. auris TDG 1912 = format: cell-based, Candida auris
# Protocol: as §1, §2
# C. tropicalis NCPF 8760 = format: cell-based
# Protocol: as §1, §2
# C. krusei NCPF 3876 = format: cell-based
# Protocol: as §1, §2
# C. albicans NCPF 3281 = format: cell-based
# Protocol: as §1, §2
# [3] = tested on: C. parapsilosis NCPF 3209; format: cell-based
# Protocol: as §1, §2
# C. glabrata NCPF 8018 = format: cell-based
# Protocol: as §1, §2
# [4] = MHB, 37 °C, 20 h, OD600, min. three biological repeats
# [5] = C. tropicalis NCPF 8760, shown in µM
# [6] = C. krusei NCPF 3876, shown in µM
# [7] = C. albicans NCPF 3281, shown in µM
# [8] = C. parapsilosis NCPF 3209, shown in µM
# [9] = C. glabrata NCPF 8018, shown in µM
molecule,measurement,setting,value
Gentamycin [reference compound],Modal MIC,K. pneumoniae M6; [4],0.25 µg/mL
same,Modal MIC,K. pneumoniae NCTC 13368; [4],4 µg/mL
same,Modal MIC,A. baumannii ATCC 17978; [4],0.5 µg/mL
same,Modal MIC,A. baumannii AYE; [4],> 512 µg/mL
same,Modal MIC,S. aureus (MRSA) USA300; [4],4 µg/mL
same,Modal MIC,[1]; [4],0.25 µg/mL
same,Modal MIC,S. aureus (MRSA) 1199B; [4],0.25 µg/mL
same,Modal MIC,[2]; [4],0.25 µg/mL
same,Modal MIC,P. aeruginosa NCTC 13437; [4],256 µg/mL
same,Modal MIC,P. aeruginosa PAO1; [4],4 µg/mL
same,Modal MIC,E. coli LEC001; [4],4 µg/mL
same,Modal MIC,"E. coli NCTC 12923; MHB, ~5×10^5 CFU/mL, 37 °C, 20 h, OD600, min. three biological repeats",1 µg/mL
CC[C@H](C)[C@H](NC(=O)[C@@H](N)CCCCN)C(=O)N[C@@H](C)C(=O)N[C@@H](CCCCN)C(=O)N[C@H](C(=O)N[C@@H](C)C(=O)N[C@@H](CC(C)C)C(=O)N[C@@H](CCCCN)C(=O)N[C@@H](C)C(=O)N[C@@H](CC(C)C)C(N)=O)C(C)C [DRAMP02273a] (H-KIAKVALKAL-NH2),Modal MIC,K. pneumoniae NCTC 13368; [4],> 128 µg/mL
same,Modal MIC,K. pneumoniae NCTC 13368; shown in µM,> 117.5 µM
same,Modal MIC,A. baumannii AYE; [4],> 128 µg/mL
same,Modal MIC,A. baumannii AYE; shown in µM,> 117.5 µM
same,Modal MIC,S. aureus (MRSA) USA300; [4],> 128 µg/mL
same,Modal MIC,S. aureus (MRSA) USA300; shown in µM,> 117.5 µM
same,Modal MIC,S. aureus (MRSA) 1199B; [4],> 128 µg/mL
same,Modal MIC,S. aureus (MRSA) 1199B; shown in µM,> 117.5 µM
same,Modal MIC,[2]; [4],> 128 µg/mL
same,Modal MIC,[2]; shown in µM,> 117.5 µM
same,Modal MIC50,"C. auris TDG 1912; TDG 1912, 20 h",> 117.5 µM
same,Modal MIC90,"C. auris TDG 1912; TDG 1912, 20 h",> 117.5 µM
same,Modal MIC,P. aeruginosa NCTC 13437; [4],> 128 µg/mL
same,Modal MIC,P. aeruginosa NCTC 13437; shown in µM,> 117.5 µM
same,Modal MIC50,"C. tropicalis NCPF 8760; NCPF 8760, 20 h",> 117.5 µM
same,Modal MIC90,"C. tropicalis NCPF 8760; NCPF 8760, 20 h",> 117.5 µM
same,Modal MIC50,"C. krusei NCPF 3876; NCPF 3876, 20 h",> 117.5 µM
same,Modal MIC90,"C. krusei NCPF 3876; NCPF 3876, 20 h",> 117.5 µM
same,Modal MIC50,"C. albicans NCPF 3281; NCPF 3281, 20 h",> 117.5 µM
same,Modal MIC90,"C. albicans NCPF 3281; NCPF 3281, 20 h",> 117.5 µM
same,Modal MIC50,"[3]; NCPF 3209, 20 h",> 117.5 µM
same,Modal MIC90,"[3]; NCPF 3209, 20 h",> 117.5 µM
same,Modal MIC50,"C. glabrata NCPF 8018; NCPF 8018, 20 h",> 117.5 µM
same,Modal MIC90,"C. glabrata NCPF 8018; NCPF 8018, 20 h",> 117.5 µM
CC[C@H](C)[C@H](NC(=O)[C@H](C)NC(=O)CNC(=O)[C@H](C)NC(=O)[C@H](CCCCN)NC(=O)[C@H](CO)NC(=O)[C@H](C)NC(=O)[C@H](CCSC)NC(=O)CN)C(=O)N[C@@H](C)C(=O)NCC(=O)N[C@@H](CCCCN)C(=O)N[C@H](C(=O)N[C@@H](C)C(=O)N[C@@H](CCCCN)C(=O)N[C@H](C(=O)N[C@@H](C)C(=O)N[C@@H](CC(C)C)C(=O)N[C@@H](CCCCN)C(=O)N[C@@H](C)C(=O)N[C@@H](CC(C)C)C(N)=O)C(C)C)[C@@H](C)CC [DRAMP02272a] (H-GMASKAGAIAGKIAKVALKAL-NH2),Modal MIC,K. pneumoniae M6; shown in µM,16 µM
same,Modal MIC,K. pneumoniae NCTC 13368; shown in µM,32 µM
same,Modal MIC,A. baumannii ATCC 17978; shown in µM,2 µM
same,Modal MIC,A. baumannii AYE; shown in µM,1 µM
same,Modal MIC,S. aureus (MRSA) USA300; shown in µM,16 µM
same,Modal MIC,[1]; shown in µM,4 µM
same,Modal MIC,S. aureus (MRSA) 1199B; shown in µM,32 µM
same,Modal MIC,[2]; shown in µM,8 µM
same,Modal MIC50,"C. auris TDG 1912; C. auris TDG 1912, 50% growth inhibition, RPMI 1640 + 2% glucose, 37 °C, 20 h, OD600",> 128 µg/mL
same,Modal MIC90,"C. auris TDG 1912; C. auris TDG 1912, 90% growth inhibition, RPMI 1640 + 2% glucose, 37 °C, 20 h, OD600",> 128 µg/mL
same,Modal MIC50,"C. auris TDG 1912; C. auris TDG 1912, shown in µM",> 64 µM
same,Modal MIC90,"C. auris TDG 1912; C. auris TDG 1912, shown in µM",> 64 µM
same,Modal MIC,P. aeruginosa NCTC 13437; [4],> 128 µg/mL
same,Modal MIC,P. aeruginosa NCTC 13437; shown in µM,> 64 µM
same,Modal MIC,P. aeruginosa PAO1; [4],> 128 µg/mL
same,Modal MIC,P. aeruginosa PAO1; shown in µM,> 64 µM
same,Modal MIC,E. coli LEC001; shown in µM,4 µM
same,Modal MIC,E. coli NCTC 12923; shown in µM,2 µM
same,Modal MIC50,C. tropicalis NCPF 8760; [5],16 µM
same,Modal MIC90,C. tropicalis NCPF 8760; [5],16 µM
same,Modal MIC50,C. krusei NCPF 3876; [6],64 µM
same,Modal MIC90,C. krusei NCPF 3876; [6],64 µM
same,Modal MIC50,"C. albicans NCPF 3281; C. albicans NCPF 3281, 50% growth inhibition, RPMI 1640 + 2% glucose, 37 °C, 20 h",> 128 µg/mL
same,Modal MIC90,"C. albicans NCPF 3281; C. albicans NCPF 3281, 90% growth inhibition, RPMI 1640 + 2% glucose, 37 °C, 20 h",> 128 µg/mL
same,Modal MIC50,C. albicans NCPF 3281; [7],> 64 µM
same,Modal MIC90,C. albicans NCPF 3281; [7],> 64 µM
same,Modal MIC50,"[3]; C. parapsilosis NCPF 3209, 50% growth inhibition, RPMI 1640 + 2% glucose, 37 °C, 20 h",> 128 µg/mL
same,Modal MIC90,"[3]; C. parapsilosis NCPF 3209, 90% growth inhibition, RPMI 1640 + 2% glucose, 37 °C, 20 h",> 128 µg/mL
same,Modal MIC50,[3]; [8],> 64 µM
same,Modal MIC90,[3]; [8],> 64 µM
same,Modal MIC50,"C. glabrata NCPF 8018; C. glabrata NCPF 8018, 50% growth inhibition, RPMI 1640 + 2% glucose, 37 °C, 20 h",> 128 µg/mL
same,Modal MIC90,"C. glabrata NCPF 8018; C. glabrata NCPF 8018, 90% growth inhibition, RPMI 1640 + 2% glucose, 37 °C, 20 h",> 128 µg/mL
same,Modal MIC50,C. glabrata NCPF 8018; [9],> 64 µM
same,Modal MIC90,C. glabrata NCPF 8018; [9],> 64 µM
